Patent US20040063764A1, “Halogen compounds having thrombopoietin receptor agonism” (priority 2001, published 2004)
pEC50: −log10 of the molar value.

target: T1, human TPO receptor (Homo sapiens, UniProt P40238); assay: Thrombopoietic activity: proliferation of TPO dependent BaF/hTPOR cell line (WST-1); assay type: cell-based; settings: BaF/hTPOR cells, 20 hours incubation then WST-1 for 4 hours, absorbance at 450 nm; ED50 = half concentration of the concentration showing the maximum thrombopoietic activity
T1 construct: expressed in transfected cells; host or cells: BaF-B03 (murine IL-3 dependent pro-B cell line); the resulting line is BaF/hTPOR
T1 sequence (P40238 26-635): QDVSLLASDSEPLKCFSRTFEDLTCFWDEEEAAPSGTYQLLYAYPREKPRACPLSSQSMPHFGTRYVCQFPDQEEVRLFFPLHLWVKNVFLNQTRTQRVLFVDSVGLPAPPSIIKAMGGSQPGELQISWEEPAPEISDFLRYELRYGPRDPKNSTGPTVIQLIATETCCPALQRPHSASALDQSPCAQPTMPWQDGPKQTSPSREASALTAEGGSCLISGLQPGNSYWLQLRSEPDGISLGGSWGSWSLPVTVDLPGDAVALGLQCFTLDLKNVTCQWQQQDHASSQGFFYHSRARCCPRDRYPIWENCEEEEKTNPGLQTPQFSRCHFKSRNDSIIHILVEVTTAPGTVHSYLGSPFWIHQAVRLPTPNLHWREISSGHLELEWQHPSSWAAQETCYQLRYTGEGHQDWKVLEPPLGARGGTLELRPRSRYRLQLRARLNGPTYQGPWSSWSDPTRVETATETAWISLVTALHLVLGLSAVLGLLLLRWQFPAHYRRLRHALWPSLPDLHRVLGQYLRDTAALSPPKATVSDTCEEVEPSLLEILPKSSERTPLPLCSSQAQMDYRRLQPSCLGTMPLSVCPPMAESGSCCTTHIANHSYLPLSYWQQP
Text: The TPO dependent BaF/hTPOR cell line which was established by introducing human TPO receptor into BaF-B03 cells according to Collins et al (J. Cell. Physiol., 137:293-298 (1988)) was used to test the thrombopoietic activity of the present compound. The DNA sequences and encoded peptide sequences for human TPO receptor have been described by Vigon et al (Proc. Natl. Acad. Sci. USA, 89:5640-5644 (1992)). TPO dose not have any ability to support proliferation of interlukin-3 dependent parental cell line BaF-B03. BAF/hTPOR cells were maintained in RPMI medium and 10% WEHI-3 conditioned medium. These cells were washed once with PBS and resuspended in RPMI medium without WHEHI-3 conditioned medium and seeded into each well of 96-well microtiter plates at a density of 5×10^4 cells per well in the presence of the present compound or TPO. After incubation at 37° C. for 20 hours in the 5% CO2 incubator, WST-1 reagent (Takara Biomedicals, Japan) was added to each wells and the cells were further incubated for 4 hours. The absorbance at 450 nm was measured. Table 7 exemplifies the ED50 for tested compounds of the present invention, wherein the ED50 is the half concentration of the concentration showing the maximum thrombopoietic activity.

Compared with `O=C1NC(=O)/C(=C/c2ccc(C(=O)Nc3nc(-c4ccc(C(F)(F)F)cc4F)cs3)cc2)S1` [Compound A-4], `Cc1ccc(-c2csc(NC(=O)c3ccc(/C=C4\SC(=O)NC4=O)cc3)n2)c(F)c1` [Compound A-7] is 0.44 log units lower in pEC50: 7.59 for the first, 7.15 for the second. The first is the more potent here.

First: O=C1NC(=O)/C(=C/c2ccc(C(=O)Nc3nc(-c4cccc(CCc5ccccc5)c4F)cs3)cc2)S1 [Compound A-33]
Second: O=C1NC(=O)/C(=C/c2ccc(C(=O)Nc3nc(-c4cccc(Cc5ccccc5)c4F)cs3)cc2)S1 [Compound A-34]
The pEC50 of the first is 0.28 log units higher: 7.92 for the first, 7.64 for the second.

First: COC(c1cccc(-c2csc(NC(=O)c3ccc(/C=C4\SC(=O)NC4=O)cc3)n2)c1F)C(C)C (stereo not shown) [Compound A-50]
Second: CCOc1cccc(-c2csc(NC(=O)c3ccc(/C=C4\SC(=O)NC4=O)cc3)n2)c1F [Compound A-31]
The pEC50 of the first is 0.31 log units higher: 7.55 for the first, 7.24 for the second.

Going from `O=C1NC(=O)/C(=C/c2ccc(C(=O)Nc3nc(-c4ccc(-c5ccccc5)cc4F)cs3)cc2)S1` [Compound A-8] to `O=C1NC(=O)/C(=C/c2ccc(C(=O)Nc3nc(-c4cccc(-c5ccccc5)c4F)cs3)cc2)S1` [Compound A-13], the pEC50 rises from 6.46 to 7.60 (1.14 log units).

Going from `CC(C)(C)CCc1cccc(-c2csc(NC(=O)c3ccc(/C=C4\SC(=O)NC4=O)cc3)n2)c1F` [Compound A-32] to `COCCc1cccc(-c2csc(NC(=O)c3ccc(/C=C4\SC(=O)NC4=O)cc3)n2)c1F` [Compound A-42], the pEC50 falls from 8.05 to 7.43 (0.62 log units).

`COC(c1cccc(-c2csc(NC(=O)c3ccc(/C=C4\SC(=O)NC4=O)cc3)n2)c1F)C1CCCCC1` (stereo not shown) [Compound A-51] and `O=C1NC(=O)/C(=C/c2ccc(C(=O)Nc3nc(-c4cccc(C5CCCCC5)c4F)cs3)cc2)S1` [Compound A-37] are within 0.2 log units of each other in pEC50: 7.89 for the first, 7.77 for the second.

Compared with `O=C1NC(=O)/C(=C/c2ccc(C(=O)Nc3nc(-c4cccc(-c5cccnc5)c4F)cs3)cc2)S1` [Compound A-30], `O=C1NC(=O)/C(=C/c2ccc(C(=O)Nc3nc(-c4cccc(F)c4F)cs3)cc2)S1` [Compound A-5] is 0.64 log units higher in pEC50: 6.96 for the first, 7.60 for the second.

Compared with `COc1ccc(-c2csc(NC(=O)c3ccc(/C=C4\SC(=O)NC4=O)cc3)n2)c(F)c1` [Compound A-3], `O=C1NC(=O)/C(=C/c2ccc(C(=O)Nc3nc(-c4ccc(Br)cc4F)cs3)cc2)S1` [Compound A-6] is 0.30 log units higher in pEC50: 7.12 for the first, 7.42 for the second. The second is the more potent here.

First: O=C1NC(=O)/C(=C/c2ccc(C(=O)Nc3nc(-c4cccc(C5CCCC5)c4F)cs3)cc2)S1 [Compound A-38]
Second: CCCCc1cccc(-c2csc(NC(=O)c3ccc(/C=C4\SC(=O)NC4=O)cc3)n2)c1F [Compound A-28]
The pEC50 of the first is 0.45 log units lower: 7.55 for the first, 8.00 for the second. The second is the more potent here.

Going from `COCCOCCc1cccc(-c2csc(NC(=O)c3ccc(/C=C4\SC(=O)NC4=O)cc3)n2)c1F` [Compound A-43] to `CCOCCc1cccc(-c2csc(NC(=O)c3ccc(/C=C4\SC(=O)NC4=O)cc3)n2)c1F` [Compound A-35], the pEC50 rises from 7.16 to 7.64 (0.48 log units). The second is the more potent here.

`CCOC(=O)CCCCCc1cccc(-c2csc(NC(=O)c3ccc(/C=C4\SC(=O)NC4=O)cc3)n2)c1F` [Compound A-45] and `CCOC(=O)CCCCc1cccc(-c2csc(NC(=O)c3ccc(/C=C4\SC(=O)NC4=O)cc3)n2)c1F` [Compound A-44] are within 0.2 log units of each other in pEC50: 7.13 for the first, 7.08 for the second.

`O=C1NC(=O)/C(=C/c2ccc(C(=O)Nc3nc(-c4cc(F)c(F)c(F)c4F)cs3)cc2)S1` [Compound A-10] and `O=C1NC(=O)/C(=C/c2ccc(C(=O)Nc3nc(-c4cc(F)ccc4F)cs3)cc2)S1` [Compound A-2] are within 0.2 log units of each other in pEC50: 7.12 for the first, 7.07 for the second.

Going from `O=C1NC(=S)S/C1=C\c1ccc(C(=O)Nc2nc(-c3cccc(C(F)(F)F)c3F)cs2)cc1` [Compound A-1] to `O=C1NC(=O)/C(=C/c2ccc(C(=O)Nc3nc(-c4cccc(OC(F)(F)F)c4F)cs3)cc2)S1` [Compound A-46], the pEC50 falls from 8.10 to 7.89 (0.21 log units). The first is the more potent here.

Work on `CCCc1c(Br)ccc(-c2csc(NC(=O)c3ccc(/C=C4\SC(=O)NC4=O)cc3)n2)c1F` [Compound A-29] yielded a pEC50 of 7.80.

same assay, conditions: Table 7; BaF/hTPOR cells, 20 hours incubation then WST-1 for 4 hours, absorbance at 450 nm; ED50 = half concentration of the concentration showing the maximum thrombopoietic activity

`O=C1NC(=O)C(=Cc2ccc(C(=O)Nc3nc(-c4cccc(Br)c4F)cs3)cc2)S1` [Compound A-14] and `Cc1cccc(-c2csc(NC(=O)c3ccc(C=C4SC(=O)NC4=O)cc3)n2)c1F` [Compound A-16] are within 0.2 log units of each other in pEC50: 7.59 for the first, 7.60 for the second.

First: COc1cccc(-c2csc(NC(=O)c3ccc(C=C4SC(=O)NC4=O)cc3)n2)c1F [Compound A-15]
Second: CCc1cccc(-c2csc(NC(=O)c3ccc(C=C4SC(=O)NC4=O)cc3)n2)c1F [Compound A-25]
The pEC50 of the first is 0.60 log units lower: 7.14 for the first, 7.74 for the second.

Compared with `CCCCCc1cccc(-c2csc(NC(=O)c3ccc(C=C4SC(=O)NC4=O)cc3)n2)c1F` [Compound A-17], `CCCCCCc1cccc(-c2csc(NC(=O)c3ccc(C=C4SC(=O)NC4=O)cc3)n2)c1F` [Compound A-22] is 0.26 log units higher in pEC50: 7.89 for the first, 8.15 for the second. The second is the more potent here.

Compared with `CC(C)CCCCc1cccc(-c2csc(NC(=O)c3ccc(C=C4SC(=O)NC4=O)cc3)n2)c1F` [Compound A-26], `CCCCOc1cccc(-c2csc(NC(=O)c3ccc(C=C4SC(=O)NC4=O)cc3)n2)c1F` [Compound A-24] is 0.84 log units lower in pEC50: 8.15 for the first, 7.31 for the second.

Compared with `O=C1NC(=O)C(=Cc2ccc(C(=O)Nc3nc(-c4ccc(C(F)(F)F)c(Br)c4F)cs3)cc2)S1` [Compound A-21], `O=C1NC(=O)C(=Cc2ccc(C(=O)Nc3nc(-c4ccc(F)c(Br)c4F)cs3)cc2)S1` [Compound A-18] is 0.63 log units higher in pEC50: 6.45 for the first, 7.08 for the second.

`CCCCCc1c(F)ccc(-c2csc(NC(=O)c3ccc(C=C4SC(=O)NC4=O)cc3)n2)c1F` [Compound A-23] and `O=C1NC(=O)C(=Cc2ccc(C(=O)Nc3nc(-c4ccc(F)c(-c5ccccc5)c4F)cs3)cc2)S1` [Compound A-19] are within 0.2 log units of each other in pEC50: 7.12 for the first, 7.16 for the second.

`O=C1NC(=O)C(=Cc2ccc(C(=O)Nc3nc(-c4cccc(-c5ccc(F)cc5)c4F)cs3)cc2)S1` [Compound A-20] gave a pEC50 of 7.55.
